Like-named read-outs stand apart in the source and are kept apart here.
How the values were obtained:
[1] = molecular target: T1, Type I 5α-Reductase from Human Scalp (Homo sapiens, UniProt P18405); assay: Human Type I 5α-reductase assay (conversion of [3H]-testosterone to 5α-reduced metabolites); format: biochemical
T1 construct: Scalp punch biopsies from graft recipient sites were obtained from human hair transplant procedures; from tissue; host or cells: human scalp punch biopsies (hair transplant graft recipient sites), homogenate, 100,000×g pellet
T1 sequence (P18405 1-259): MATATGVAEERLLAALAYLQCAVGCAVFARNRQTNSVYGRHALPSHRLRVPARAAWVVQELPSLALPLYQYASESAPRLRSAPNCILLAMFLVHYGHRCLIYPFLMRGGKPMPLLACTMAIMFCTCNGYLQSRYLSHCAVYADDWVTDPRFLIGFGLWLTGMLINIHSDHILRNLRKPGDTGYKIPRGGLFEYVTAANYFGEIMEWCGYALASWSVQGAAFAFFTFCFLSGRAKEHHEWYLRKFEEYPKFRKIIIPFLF

[2] = molecular target: T2, Type II 5α-Reductase from Human Prostate (Homo sapiens, UniProt P31213); assay: Human Type II 5α-reductase assay (conversion of [3H]-testosterone to 5α-reduced metabolites); format: biochemical
T2 construct: The same procedure as above was used for preparations using tissue from prostate surgery; from tissue; host or cells: human prostate tissue from surgery, homogenate, 100,000×g pellet
T2 sequence (P31213 1-254): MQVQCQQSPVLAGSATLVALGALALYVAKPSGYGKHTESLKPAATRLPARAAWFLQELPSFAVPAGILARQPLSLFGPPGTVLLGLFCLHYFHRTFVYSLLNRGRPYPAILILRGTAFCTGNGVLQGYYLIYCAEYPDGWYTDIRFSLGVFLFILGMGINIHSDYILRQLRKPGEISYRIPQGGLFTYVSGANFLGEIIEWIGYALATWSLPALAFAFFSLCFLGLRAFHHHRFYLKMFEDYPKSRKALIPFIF

[3] = pH 7.5, 0.3 μM, 50 nM [3H]-testosterone, pH 7.5, 25°, 180 min, compared to control reaction mixtures, read-out: percent inhibition of Type I AR
[4] = pH 5.5, 0.3 μM, sodium acetate pH 5.5, 25°, 30 min, compared to control reaction mixtures, read-out: percent inhibition of Type II AR

SMILES | inhibition at 0.3 µM [1, 3] [%] | inhibition at 0.3 µM [2, 4] [%] | inhibition at 0.3 µM ([1]; pH 7.5, read-out: percent inhibition of Type I AR) [%] | inhibition at 0.3 µM ([2]; pH 5.5, read-out: percent inhibition of Type II AR) [%] | percent inhibition of Type II AR ([2]; 0.3 μM, sodium acetate pH 5.5, 25°, 30 min, compared to control reaction mixtures) [%]
CN1C(=O)CC[C@]2(C)c3ccc(-c4ccc(O)c(C=O)c4)cc3CC[C@@H]12 [Example 58, (+)-(4aR)-(10bR)-4-methyl-8-(3-formyl-4-hydroxyphenyl)-10b-methyl-1,2,3,4,4a,5,6,10b-octahydrobenzo[f]quinolin-3-one] | 65 | 24 |  |  | 
CN1C(=O)CC[C@]2(C)c3ccc(-c4c5ccccc5cc5ccccc45)cc3CC[C@@H]12 [Example 61, (+)-(4aR)-(10bR)-4-methyl-8-(9-anthracenyl)-10b-methyl-1,2,3,4,4a,5,6,10b-octahydrobenzo[f]quinolin-3-one] | 53 | 36 |  |  | 
CN1C(=O)CC[C@]2(C)c3ccc(-c4ccc5cc(OCc6ccccc6)ccc5c4)cc3CC[C@@H]12 [Example 62, (+)-(4aR)-(10bR)-4-methyl-8-(2-[6-benzyloxy]naphthyl)-10b-methyl-1,2,3,4,4a,5,6,10b-octahydrobenzo[f]quinolin-3-one] | 45 | 42 |  |  | 
CN1C(=O)CC[C@]2(C)c3ccc(-c4ccc(F)c5ccccc45)cc3CC[C@@H]12 [Example 64, (+)-(4aR)-(10bR)-4-methyl-8-(1-[4-fluoro]naphthyl)-10b-methyl-1,2,3,4,4a,5,6,10b-octahydrobenzo[f]quinolin-3-one] | 81 | 22 |  |  | 
Cc1ccc(-c2ccc3c(c2)CC[C@H]2N(C)C(=O)CC[C@]32C)c2ccccc12 [Example 65, (+)-(4aR)-(10bR)-4-methyl-8-(1-[4-methyl]naphthyl)-10b-methyl-1,2,3,4,4a,5,6,10b-octahydrobenzo[f]quinolin-3-one] | 79 | 42 |  |  | 
CN1C(=O)CC[C@]2(C)c3ccc(-c4ccc5c6c(cccc46)CC5)cc3CC[C@@H]12 [Example 66, (+)-(4aR)-(10bR)-4-methyl-8-(5-acenaphthenyl)-10b-methyl-1,2,3,4,4a,5,6,10b-octahydrobenzo[f]quinolin-3-one] | 67 | 33 |  |  | 
CN1C(=O)CC[C@]2(C)c3ccc(-c4cc5ccccc5c5ccccc45)cc3CC[C@@H]12 [Example 67, (+)-(4aR)-(10bR)-4-methyl-8-(9-phenanthrenyl)-10b-methyl-1,2,3,4,4a,5,6,10b-octahydrobenzo[f]quinolin-3-one] |  |  | 22 | 54 | 
CCCN(CC1CC1)c1ccc(-c2ccc3c(c2)CC[C@H]2N(C)C(=O)CC[C@]32C)c2ccccc12 [Example 68, (+)-(4aR)-(10bR)-4-methyl-8-(4-[N-propyl,N-cyclopropylmethylamino]-1-naphthyl)-10b-methyl-1,2,3,4,4a,5,6,10b-octahydrobenzo[f]quinolin-3-one] | 31 | 37 |  |  | 
Cc1cccc(-c2ccc3c(c2)CC[C@H]2N(C)C(=O)CC[C@]32C)c1C [Example 69, (+)-(4aR)-(10bR)-4-methyl-8-(2,3-dimethylphenyl)-10b-methyl-1,2,3,4,4a,5,6,10b-octahydrobenzo[f]quinolin-3-one] | 84 | 6 |  |  | 
CN1C(=O)CC[C@]2(C)c3ccc(-c4ccc5ccccc5c4)cc3CC[C@@H]12 [Example 71, (+)-(4aR)-(10bR)-4-methyl-8-(2-naphthyl)-10b-methyl-1,2,3,4,4a,5,6,10b-octahydrobenzo[f]quinolin-3-one] | 80 | 47 |  |  | 
Cc1ccc2ccccc2c1-c1ccc2c(c1)CC[C@H]1N(C)C(=O)CC[C@]21C [Example 72, (+)-(4aR)-(10bR)-4-methyl-8-(1-[2-methyl]naphthyl)-10b-methyl-1,2,3,4,4a,5,6,10b-octahydrobenzo[f]quinolin-3-one] | 16 | 26 |  |  | 
CN1C(=O)CC[C@]2(C)c3ccc(-c4cccc(Cl)c4Cl)cc3CC[C@@H]12 [Example 73, (+)-(4aR)-(10bR)-4-methyl-8-(2,3-dichlorophenyl)-10b-methyl-1,2,3,4,4a,5,6,10b-octahydrobenzo[f]quinolin-3-one] | 87 | 16 |  |  | 
CCN(CC)C(=O)c1ccccc1-c1ccc2c(c1)CC[C@H]1N(C)C(=O)CC[C@]21C [Example 74] | 16 | 26 |  |  | 
CN1C(=O)CC[C@]2(C)c3ccc(-c4ccc(C(C)(C)C)cc4)cc3CC[C@@H]12 [Example 75, (+)-(4aR)-(10bR)-4-methyl-8-(4-t-butylphenyl)-10b-methyl-1,2,3,4,4a,5,6,10b-octahydrobenzo[f]quinolin-3-one] | 63 | 40 |  |  | 
CCCCc1ccc(-c2ccc3c(c2)CC[C@H]2N(C)C(=O)CC[C@]32C)cc1 [Example 76, (+)-(4aR)-(10bR)-4-methyl-8-(4-n-butylphenyl)-10b-methyl-1,2,3,4,4a,5,6,10b-octahydrobenzo[f]quinolin-3-one] | 83 | 46 |  |  | 
CN1C(=O)CC[C@]2(C)c3ccc(-c4ccc(Cl)c(Cl)c4)cc3CC[C@@H]12 [Example 77, (+)-(4aR)-(10bR)-4-methyl-8-(3,4-dichlorophenyl)-10b-methyl-1,2,3,4,4a,5,6,10b-octahydrobenzo[f]quinolin-3-one] | 88 | 46 |  |  | 33
CN1C(=O)CC[C@]2(C)c3ccc(-c4cccc(C(F)(F)F)c4)cc3CC[C@@H]12 [Example 80, (+)-(4aR)-(10bR)-4-methyl-8-(3-trifluoromethylphenyl)-10b-methyl-1,2,3,4,4a,5,6,10b-octahydrobenzo[f]quinolin-3-one] | 76 | 29 |  |  | 
COc1ccc2cc(-c3ccc4c(c3)CC[C@H]3N(C)C(=O)CC[C@]43C)ccc2c1 [Example 81, (+)-(4aR)-(10bR)-4-methyl-8-(2-[6-methoxy]naphthyl)-10b-methyl-1,2,3,4,4a,5,6,10b-octahydrobenzo[f]quinolin-3-one] | 92 | 25 |  |  | 
CN1C(=O)CC[C@]2(C)c3ccc(-c4cc5ccccc5s4)cc3CC[C@@H]12 [Example 82, (+)-(4aR)-(10bR)-4-methyl-8-(2-benzothienyl)-10b-methyl-1,2,3,4,4a,5,6,10b-octahydrobenzo-[f]quinolin-3-one] | 85 | 31 |  |  | 
CN1C(=O)CC[C@]2(C)c3ccc(-c4ccc(-c5ccccc5)cc4)cc3CC[C@@H]12 [Example 84, (+)-(4aR)-(10bR)-4-methyl-8-(4-biphenyl)-10b-methyl-1,2,3,4,4a,5,6,10b-octahydrobenzo[f]quinolin-3-one] | 88 | 23 |  |  | 
CN1C(=O)CC[C@]2(C)c3ccc(-c4cccc([N+](=O)[O-])c4)cc3CC[C@@H]12 [Example 86, (+)-(4aR)-(10bR)-4-methyl-8-(3-nitrophenyl)-10b-methyl-1,2,3,4,4a,5,6,10b-octahydrobenzo[f]quinolin-3-one] | 66 | 51 |  |  | 
CN1C(=O)CC[C@]2(C)c3ccc(-c4cc(C(F)(F)F)cc(C(F)(F)F)c4)cc3CC[C@@H]12 [Example 87, (+)-(4aR)-(10bR)-4-methyl-8-(3,5-his [trifluoromethyl]phenyl)-10b-methyl-1,2,3,4,4a,5,6,10b-octahydrobenzo[f]quinolin-3-one] | 83 | 28 |  |  | 

Reference: patent publication US5622962A, “5α-reductase inhibitors” (priority 1995, dated 1997)
